Where two headings read alike, the source gives them in different places.
Molecular target: human GPR88 (Homo sapiens, UniProt Q9GZN0)
Assay: Lance cAMP assay using stable PPLS-HA-GPR88 CHO cells
Type: cell-based
Settings: for agonist activity in words: qualitative SAR statement, Lance cAMP assay

human GPR88, sequence (Q9GZN0 whole entry): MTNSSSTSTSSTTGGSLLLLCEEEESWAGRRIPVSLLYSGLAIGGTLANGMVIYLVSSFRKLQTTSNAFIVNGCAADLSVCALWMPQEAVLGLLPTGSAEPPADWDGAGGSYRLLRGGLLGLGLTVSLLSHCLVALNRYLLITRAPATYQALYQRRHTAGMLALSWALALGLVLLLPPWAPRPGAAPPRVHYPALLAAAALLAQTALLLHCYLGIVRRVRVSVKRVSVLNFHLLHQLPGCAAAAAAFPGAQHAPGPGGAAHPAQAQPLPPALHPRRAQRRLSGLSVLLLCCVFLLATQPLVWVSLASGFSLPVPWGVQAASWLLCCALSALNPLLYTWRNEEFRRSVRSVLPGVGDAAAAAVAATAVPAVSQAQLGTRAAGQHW

Molecule	agonist activity in words	EC50 (EC50)	further results
CC[C@H](C)[C@H](N)CN(C(=O)[C@@H]1C[C@H]1c1ccccn1)c1ccc(-c2ccc(C(N)=O)cc2)cc1 (relative stereo) [5z, (1R*,2R*)-2-(Pyridin-2-yl)cyclopropanecarboxylic Acid [(2S,3S)-2-Amino-3-methylpentyl]-(4′-carbamoylbiphenyl-4-yl)amide]	least activity in the series		
CC[C@H](C)[C@H](N)CN(C(=O)[C@@H]1C[C@H]1c1ccccn1)c1ccc(-c2ccc(NC(C)=O)cc2)cc1 (relative stereo) [5y, (1R*,2R*)-2-(Pyridin-2-yl)cyclopropanecarboxylic Acid [(2S,3S)-2-Amino-3-methylpentyl]-(4′-acetamidobiphenyl-4-yl)amide]	least activity in the series		
CC[C@H](C)[C@H](N)CN(C(=O)[C@@H]1C[C@H]1c1ccccn1)c1ccc(-c2ccc(C(C)(C)C)cc2)cc1 (relative stereo) [5f, (1R*,2R*)-2-(Pyridin-2-yl)cyclopropanecarboxylic Acid [(2S,3S)-2-Amino-3-methylpentyl]-(4′-tert-butylbiphenyl-4-yl)amide]		515 nM	
CCOC(=O)c1ccc(-c2ccc(N(C[C@@H](N)[C@@H](C)CC)C(=O)[C@@H]3C[C@H]3c3ccccn3)cc2)cc1 (relative stereo) [5u, (1R*,2R*)-2-(Pyridin-2-yl)cyclopropanecarboxylic Acid [(2S,3S)-2-Amino-3-methylpentyl]-(4′-ethoxycarbonylbiphenyl-4-yl)amide]		257 nM	
CC[C@H](C)[C@H](N)CN(C(=O)[C@@H]1C[C@H]1c1ccccn1)c1ccc(-c2ccc(C)cc2)cc1 (relative stereo) [5a, (1R*,2R*)-2-(Pyridin-2-yl)cyclopropanecarboxylic Acid [(2S,3S)-2-Amino-3-methylpentyl]-(4′-methylbiphenyl-4-yl)amide]		104 nM	EC50 (EC50 (nM)): 104 nM
CCOc1ccc(-c2ccc(N(C[C@@H](N)[C@@H](C)CC)C(=O)[C@@H]3C[C@H]3c3ccccn3)cc2)cc1 (relative stereo) [5l, (1R*,2R*)-2-(Pyridin-2-yl)cyclopropanecarboxylic Acid [(2S,3S)-2-Amino-3-methylpentyl]-(4′-ethoxybiphenyl-4-yl)amide]		82 nM	EC50 (EC50 (nM)): 82 nM
CC[C@H](C)[C@H](N)CN(C(=O)[C@@H]1C[C@H]1c1ccccn1)c1ccc(-c2ccc(CC(C)C)cc2)cc1 (relative stereo) [5e, (1R*,2R*)-2-(Pyridin-2-yl)cyclopropanecarboxylic Acid [(2S,3S)-2-Amino-3-methylpentyl]-(4′-isobutylbiphenyl-4-yl)amide]		271 nM	
(1R*,2R*)-2-(Pyridin-2-yl)cyclopropanecarboxylic Acid [(2S,3S)-2-Amino-3-methylpentyl]-(4′-benzylphenyl-4-yl)amide [4f]	deteriorated activity		
CC[C@H](C)[C@H](N)CN(C(=O)[C@@H]1C[C@H]1c1ccccn1)c1ccc(-c2ccc(N(C)C)cc2)cc1 (relative stereo) [5x, (1R*,2R*)-2-(Pyridin-2-yl)cyclopropanecarboxylic Acid [(2S,3S)-2-Amino-3-methylpentyl]-[4′-(dimethylamino)biphenyl-4-yl]amide]		294 nM	
CC[C@H](C)[C@H](N)CN(C(=O)[C@@H]1C[C@H]1c1ccccn1)c1ccc(-c2ccccc2)cc1 (relative stereo) [4d, (1R*,2R*)-2-(Pyridin-2-yl)cyclopropanecarboxylic Acid [(2S,3S)-2-Amino-3-methylpentyl]-(biphenyl-4-yl)amide]			EC50: 283 nM
CCc1ccc(-c2ccc(N(C[C@@H](N)[C@@H](C)CC)C(=O)[C@@H]3C[C@H]3c3ccccn3)cc2)cc1 (relative stereo) [5c, (1R*,2R*)-2-(Pyridin-2-yl)cyclopropanecarboxylic Acid [(2S,3S)-2-Amino-3-methylpentyl]-(4′-ethylbiphenyl-4-yl)amide]		85 nM	EC50 (EC50 (nM)): 85 nM
(1R*,2R*)-2-(Pyridin-2-yl)cyclopropanecarboxylic Acid [(2S,3S)-2-Amino-3-methylpentyl]-(4′-phenoxyphenyl-4-yl)amide [4e]	deteriorated activity		
CC[C@H](C)[C@H](N)CN(C(=O)[C@@H]1C[C@H]1c1ccccn1)c1ccc(-c2ccc(C#N)cc2)cc1 (relative stereo) [5r, (1R*,2R*)-2-(Pyridin-2-yl)cyclopropanecarboxylic Acid [(2S,3S)-2-Amino-3-methylpentyl]-(4′-cyanobiphenyl-4-yl)amide]		197 nM	
CC[C@H](C)[C@H](N)CN(C(=O)[C@@H]1C[C@H]1c1ccccn1)c1ccc(-c2ccc(N)cc2)cc1 (relative stereo) [5w, (1R*,2R*)-2-(Pyridin-2-yl)cyclopropanecarboxylic Acid [(2S,3S)-2-Amino-3-methylpentyl]-(4′-aminobiphenyl-4-yl)amide]	significant decrease in activity	1120 nM	
CC[C@H](C)[C@H](N)CN(C(=O)[C@@H]1C[C@H]1c1ccccn1)c1ccc(-c2ccc(-c3ccccc3)cc2)cc1 (relative stereo) [5i, (1R*,2R*)-2-(Pyridin-2-yl)cyclopropanecarboxylic Acid [(2S,3S)-2-Amino-3-methylpentyl]-(4′-phenylbiphenyl-4-yl)amide]		289 nM	
CC[C@H](C)[C@H](N)CN(C(=O)[C@@H]1C[C@H]1c1ccccn1)c1ccc(-c2ccc([N+](=O)[O-])cc2)cc1 (relative stereo) [5s, (1R*,2R*)-2-(Pyridin-2-yl)cyclopropanecarboxylic Acid [(2S,3S)-2-Amino-3-methylpentyl]-(4′-nitrobiphenyl-4-yl)amide]		274 nM	
CC[C@H](C)[C@H](N)CN(C(=O)[C@@H]1C[C@H]1c1ccccn1)c1ccc(-c2ccc(OC)c(OC)c2)cc1 (relative stereo) [5n, (1R*,2R*)-2-(Pyridin-2-yl)cyclopropanecarboxylic Acid [(2S,3S)-2-Amino-3-methylpentyl]-(3′,4′-dimethoxybiphenyl-4-yl)amide]		917 nM	fold loss of activity: approximately 10 fold
CC[C@H](C)[C@H](N)CN(C(=O)[C@@H]1C[C@H]1c1ccccn1)c1ccc(-c2ccc(C(=O)N(C)C)cc2)cc1 (relative stereo) [5aa, (1R*,2R*)-2-(Pyridin-2-yl)cyclopropanecarboxylic Acid [(2S,3S)-2-Amino-3-methylpentyl]-[4′-(dimethylcarbamoyl)biphenyl-4-yl]-amide]	least activity in the series	3320 nM	
(1R*,2R*)-2-(Pyridin-2-yl)cyclopropanecarboxylic Acid [(2S,3S)-2-Amino-3-methylpentyl]-(4′-phenethylphenyl-4-yl)amide [4g]	deteriorated activity		
CC[C@H](C)[C@H](N)CN(C(=O)[C@@H]1C[C@H]1c1ccccn1)c1ccc(-c2ccc(OC(F)(F)F)cc2)cc1 (relative stereo) [5k, (1R*,2R*)-2-(Pyridin-2-yl)cyclopropanecarboxylic Acid [(2S,3S)-2-Amino-3-methylpentyl]-(4′-trifluoromethoxybiphenyl-4-yl)amide]		139 nM	
CC[C@H](C)[C@H](N)CN(C(=O)[C@@H]1C[C@H]1c1ccccn1)c1ccc(-c2ccc(OC(C)C)cc2)cc1 (relative stereo) [5m, (1R*,2R*)-2-(Pyridin-2-yl)cyclopropanecarboxylic Acid [(2S,3S)-2-Amino-3-methylpentyl]-(4′-isopropoxybiphenyl-4-yl)amide]			EC50: 77 nM
